System: participants
Assay: Systolic blood pressure, crossover vs caffeine
Assay type: in vivo, human
Text: All supplements were orally ingested with 8 fluid ounces of cold tap water.

## Cn1c(=O)[nH]c2nc[nH]c2c1=O [1-methylxanthine, 1-Methyl-3H-purine-2,6-dione]
200 mg oral
  systolic blood pressure change from baseline: did not increase
  systolic blood pressure reduced in comparison to CA: 6.1%
Average
  Systolic Blood Pressure MEAN (30-180): 117.2 mm Hg
Person one
  Systolic Blood Pressure MEAN (30-180): 123.6 mm Hg
  Systolic Blood Pressure Mean Δ from 0: −1.6 mm Hg
  Systolic Blood Pressure Δ vs. CA: −6.4 mm Hg
Person one, 30 min
  Systolic Blood Pressure: 116 mm Hg
Person one, 60 min
  Systolic Blood Pressure: 136 mm Hg
Person one, 90 min
  Systolic Blood Pressure: 108 mm Hg
Person one, 120 min
  Systolic Blood Pressure: 116 mm Hg
Person one, 180 min
  Systolic Blood Pressure: 142 mm Hg
Person one, time 0, 200 mg oral
  Systolic Blood Pressure: 125 mm Hg
Person two
  Systolic Blood Pressure MEAN (30-180): 110.8 mm Hg
  Systolic Blood Pressure Mean Δ from 0: −2.2 mm Hg
  Systolic Blood Pressure Δ vs. CA: −9.6 mm Hg
Person two, 30 min
  Systolic Blood Pressure: 125 mm Hg
Person two, 60 min
  Systolic Blood Pressure: 110 mm Hg
Person two, 90 min
  Systolic Blood Pressure: 113 mm Hg
Person two, 120 min
  Systolic Blood Pressure: 114 mm Hg
Person two, 180 min
  Systolic Blood Pressure: 92 mm Hg
Person two, time 0, 200 mg oral
  Systolic Blood Pressure: 113 mm Hg

Reference: US12390470B2, “1-methylxanthine-based bioactive composition and method of use thereof” (Ingenious Ingredients, LP, priority 2021, dated 2025)
